Results as given in the NIST ThermoML archive (doi:10.1021/je500284p).
± gives the expanded uncertainty stated by the source.

Conditions: 101.33 kPa, Liquid

NC=O [formamide]
Conditions | viscosity [mPa·s]
298.15 K | 3.23 ± 0.17
303.15 K | 2.95 ± 0.16
308.15 K | 2.67 ± 0.15
313.15 K | 2.43 ± 0.14
318.15 K | 2.2 ± 0.13
323.15 K | 1.99 ± 0.12
328.15 K | 1.82 ± 0.11
333.15 K | 1.69 ± 0.11
338.15 K | 1.58 ± 0.11
343.15 K | 1.52 ± 0.1
348.15 K | 1.49 ± 0.1
